# According to patent publication US6362207B1, “Methods of treating viral infections with benzimidazoles” (priority 1995, dated 2002):
# Test system: Pancreas (Mia-PaCa)
# Test: Pancreas (Mia-PaCa) model, tumor weight
# Format: in vivo, mice
# Details: 80 mg/kg i.p. on days 1,4,7 and 10; c1 = day 40
# Description: The dose response effect of carbendazim in mice infected with various cancer types was studied in standard screening tests.
# The results of these studies conducted to study the dosage response of carbendazim on various cancer types are summarized below. […] Efficacy of carbendazim has been shown in the following cancers:
# In the Pancreas (Mia-PaCa) model, carbendazim at 3000 and 4000 (mg/kg, twice weekly) is as good as or better than gemcitabine. At 2000 mg/kg the carbendazim was not as effective after 21 days. Gemcitabine was given on days 1,4,7 and 10 i.p.; the carbendazim was given p.o. twice weekly.
smiles,measurement,value
"Nc1ccn([C@@H]2O[C@H](CO)[C@@H](O)C2(F)F)c(=O)n1 [Gemcitabine, reference compound]",tumor weight,503.7 mg
